Read-outs that look alike come from different tables or passages of the source.
Columns and labels:
[1] = system: hypertrophied bladder (detrussor) smooth muscle; test: Inhibition of spontaneous contractions in vivo (conscious female rats with hypertrophied bladders, cystometry); design: species or system Female Sprague-Dawley rats; settings: hypertrophied rat bladder model
Description: In addition, we tested the ability of compounds to inhibit the hyperactivity of hypertrophied bladder (detrussor) smooth muscle in conscious female rats with hypertrophied bladders and thereby alleviate urinary incontinence in rats according to the following protocol described by Malmgren (A. Malmgren, K. E. Andersson, C. Sjogren, P. O. Andersson, Effects of pinacidil and Cromakalim (BRL 34915) on Bladder Function in Rats with Detrusor Instability, J. Urol. 142: 1134, 1989.):
Female Sprague-Dawley rats, ranging in weight from 190-210 g are used. Up to 25 animals are prepared each time. After developemnt of bladder hypertrophy 4-8 animals are used per test.
Compounds are dissolved in PEG-200 and administered by gastric gavage or intraveneously in a volume of 5 ml/kg. For primary screening all drugs are administered at the arbitrary dose of 10 mg/kg p.o. to groups of 4 rats.
The animals are anesthetized with halothane. Through a midline incision the bladder and urethra are exposed and a ligature of 4-0 silk is tied around the proximal urethra in the presence of a stainless steel rod (1 mm diameter) to produce a partial occlusion. The rod is then removed. The abdominal region is closed using surgical staples and each rat receives 150,000 units of bicillin C-R. The animals ar allowed six weeks to develop sufficient bladder hypertrophy. After six weeks, the ligature is removed under halothane anesthesia and a catheter (PE 60) with a cuff is placed in the dome of the bladder and secured with a purse string suture. The catheter is tunneled under the skin and exteriorized through an opening in the back of the neck. The abdominal incision is sutured and the free end of the catheter sealed. In order to prevent infections the rats receive an injection of bicillin C-R (150000 units/rat). Two days later the animals are used in cystometrical evaluations, The animals are placed in the metabolic cages and the catheter is attached (using a "T" connector) to a Statham pressure transducer (Model P23Db) and to a Harvard infusion pump. A plastic beaker attached to a force displacement transducer (Grass FTO3) is placed under the rat's cage to collect and record urine volume. Animals are allowed 15-30 min t rest before the saline infusion (20 ml/hr for 20 minutes) is started for the first cystometry period. Two hours after the first cystometry period, the rats are dosed with the vehicle or the test compound and one hour later a second cystometry is performed.
The following urodynamic variables are recorded:
Basal bladder pressure=the lowest bladder pressure during cystometry
Threshold pressure=bladder pressure immediately prior to micturition
Micturition volume=volume expelled
Micturition pressure=peak pressure during voiding
Spontaneous activity=mean amplitude of bladder pressure fluctuations during filling
Presentation of results: The mean value of each variable is calculated before and after compound administration. For each compound the changes in the variables measured are compared to the values obtained before treatment and expressed as percent inhibition. The data are also subjected to 2-way analysis of variance to determine significant (p<0.05) changes in the variable measured.
Criteria for Activity: The most characteristic finding in this rat model is spontaneous bladder contractions which develop during filling. The compounds which inhibit spontaneous contractions by at least 50% at 10 mg/kg p.o. or i.v. (arbitrary chosen dose) are considered active.

[2] = system: Isolated Rat Bladder Strips; test: Inhibition of contractions in isolated rat bladder strips (KCl-enhanced contractile activity; smooth muscle relaxation); assay type: cell-based, Sprague-Dawley rats; settings: for inhibition at 30 µM: read-out: Percent inhibition at 30 μM (I); for percent contraction at 30 µM: read-out: Percent contraction at 30 μM (C)
Description: The smooth muscle relaxing activity of the compounds of this invention was established in accordance with standard pharmaceutically accepted test procedures with representative compounds as follows:
Sprague-Dawley rats (150-200 g) are rendered unconscious by CO2 asphyxiation and then euthanized by cervical dislocation. The bladder is removed into warm (37 deg.C) physiological salt solution (PSS) of the following composition (mM): NaCl, 118.4; KCl, 4.7; CaCl2, 2.5; MgSO4, 4.7; H2 O, 1,2; NaHCO3, 24.9; KH2 PO4, 1,2; glucose, 11.1; EDTA, 0.023; gassed with […]; pH 7.4. The bladder is opened and then dut into strips 1-2 mm in width and 7-10 mm in length. The strips are subsequently suspended in a 10 mL tissue bath under an initial resting tension of 1.5 g. The strips are held in place by two surgical clips one of which is attached to a fixed hook while the other is attached to an isometric force transducer. […] The carbachol is then washed out and the tissue allowed to relax to its resting level of activity. Following a further 30 min period of recovery an additional 15 mM KCl are introduced into the tissue bath. This increase in KCl concentration results in a large increase in the amplitude of spontaneous contractions (and initiation of contractions in previously quiescent strips) superimposed upon a small increase in basal tone. Following stabilization of this enhanced level of contractile activity, incremental increases in the concentration of test compound or vehicle are introduced into the tissue bath. Contractile activity is measured for each compound or vehicle concentration during the last minute of a 30 minute challenge.
The isometric force developed by the bladder strips is measured using a […] to elicit 50% inhibition of pre-drug contractile activity (IC50 concentration) and is calculated from this concentration-response curve.

[3] = 0.5 h, isolated rat bladder strips, 15 mM additional KCl, 30 minute challenge, read-out: IC50 (50% inhibition of pre-drug contractile activity)

| IC50 [2, 3] | Structure (SMILES) | also measured |
| --- | --- | --- |
| 240 ± 30 nM | CCc1cc(C#N)ccc1CNc1c(NC(C)(C)C)c(=O)c1=O [Example 27, 4-[(2-tert-Butylamino-3,4-dioxo-cyclobut-1-enylamino)-methyl]-3-ethyl-benzonitrile] | % Red (F): percent reduction in the total number of spontaneous contractions ([1]; 10 mg/kg p.o.): -20 ± 22% |
| 630 ± 150 nM | Cc1ccc(CNc2c(NC(C)(C)C)c(=O)c2=O)c(C)c1 [Example 8, 3-tert-Butylamino-4-(2,4-dimethyl-benzylamino)-cyclobut-3-ene-1,2-dione] | % Red (F): percent reduction in the total number of spontaneous contractions ([1]; 3 mg/kg p.o.): -38 ± 7% |
| 140 ± 20 nM | CC(C)(C)Nc1c(NCc2ccc(C#N)cc2Cl)c(=O)c1=O [Example 2, 4-[(2-tert-Butylamino-3,4-dioxo-cyclobut-1-enylamino)-methyl]-3-chloro-benzonitrile] | % Red (F): percent reduction in the total number of spontaneous contractions ([1]; 1 mg/kg p.o., prior lot of this compound (mp 234-236° C.)): -34 ± 11%; % Red (F): percent reduction in the total number of spontaneous contractions ([1]; 3 mg/kg p.o., prior lot of this compound (mp 234-236° C.)): -49 ± 8%; % Red (F): percent reduction in the total number of spontaneous contractions ([1]; 10 mg/kg p.o., prior lot of this compound (mp 234-236° C.)): -93 ± 3%; IC50 ([2]; Rattus norvegicus, prior lot (mp 234-236° C., softens 225° C.), n = 4, read-out: IC50 of a prior lot): 570 ± 340 nM |
| 1100 ± 300 nM | Cc1cccc(Cl)c1CNc1c(NC(C)(C)C)c(=O)c1=O [Example 31, 3-tert-Butylamino-4-(2-chloro-6-methyl-benzylamino)-cyclobut-3-ene-1,2-dion] | % Red (F): percent reduction in the total number of spontaneous contractions ([1]; 10 mg/kg p.o.): -38 ± 13% |
| 660 ± 200 nM | CC(Nc1c(NCc2ccc(C#N)cc2Cl)c(=O)c1=O)C(C)(C)C (centres unmarked) [Example 6, 3-Chloro-4-{[3,4-dioxo-2-(1,2,2-trimethyl-propylamino)-cyclobut-1-enylamino]-methyl}-benzonitrile] | % Red (F): percent reduction in the total number of spontaneous contractions ([1]; 3 mg/kg p.o.): -51 ± 6%; % Red (F): percent reduction in the total number of spontaneous contractions ([1]; 10 mg/kg p.o.): -71 ± 3%; inhibition at 30 µM ([2]; Rattus norvegicus): 41.2% |
| 290 ± 20 nM | Cc1cc(Br)cc(C)c1CNc1c(NC(C)(C)C)c(=O)c1=O [Example 36, 3-(4-Bromo-2,6-dimethyl-benzylamino)-4-tert-butylamino-cyclobut-3-ene-1,2-dione] | % Red (F): percent reduction in the total number of spontaneous contractions ([1]; 3 mg/kg p.o.): -83 ± 9% |
| 180 ± 30 nM | C[C@@H](Nc1c(NCc2ccc(C#N)cc2Cl)c(=O)c1=O)C(C)(C)C [Example 30, (R)-3-Chloro-4-{[3,4-dioxo-2-(1,2,2-trimethyl-propylamino)-cyclobut-1-enylamino]-methyl}-benzonitrile] | % Red (F): percent reduction in the total number of spontaneous contractions ([1]; 3 mg/kg p.o.): -68 ± 10%; inhibition at 30 µM ([2]; Rattus norvegicus): 23% |
| 60 ± 14 nM | CCC(C)(C)Nc1c(NCc2ccc(C#N)cc2Cl)c(=O)c1=O [Example 76] | % Red (F): percent reduction in the total number of spontaneous contractions ([1]; 3 mg/kg p.o.): -57 ± 12%; IC50 ([2]; Rattus norvegicus, second lot (mp 215.5-216.0° C., softens 211.5° C.), n = 6, read-out: IC50 of a second lot): 130 ± 30 nM |
| 860 ± 270 nM | CCC(C)(C)Nc1c(NCc2cc(C)cc(C#N)c2)c(=O)c1=O [Example 7, 3-([2-(1,1-Dimethyl-propylamino)-3,4-dioxo-cyclobut-1-enylamino]-methyl)-5-methyl-benzonitrile] |  |
| 220 ± 40 nM | CCC(C)(C)Nc1c(NCc2ccc(F)cc2F)c(=O)c1=O [Example 62, 3-(2,4-Difluoro-benzylamino)-4-(1,1-dimethyl-propylamino)-cyclobut-3-ene-1,2-dione] |  |
| 1200 ± 1100 nM | CCC(C)(C)Nc1c(NCc2c(C)cc(Br)cc2C)c(=O)c1=O [Example 37, 3-(4-Bromo-2,6-dimethyl-benzylamino)-4-(1,1-dimethyl-propylamino)-cyclobut-3-ene-1,2-dione] |  |
| 5600 nM | Cc1cccc(C)c1CNc1c(N[C@H](C)C(C)(C)C)c(=O)c1=O [Example 51, 3-(2,6-Dimethyl-benzylamino)-4-(1,2,2-trimethyl-propylamino)-cyclobut-3-ene-1,2-dione] | percent contraction at 30 µM ([2]; Rattus norvegicus, 0.5 h): 22 ± 3.2%; inhibition at 30 µM ([2]; Rattus norvegicus): 44% |
| 7500 ± 4500 nM | CC(C)(C)Nc1c(NCc2c(F)cccc2F)c(=O)c1=O [Example 19, 3-tert-Butylamino-4-(2,6-difluoro-benzylamino)-cyclobut-3-ene-1,2-dione] |  |
| 980 ± 400 nM | C[C@@H](Nc1c(NCc2cc(F)ccc2F)c(=O)c1=O)C(C)(C)C [Example 66, 3-(2.5-Difluoro-benzylamino)-4-(1,2,2-trimethyl-propylamino)-cyclobut-3-ene-1,2-dione] |  |
|  | Cc1cc(C)c(CNc2c(N[C@H](C)C(C)(C)C)c(=O)c2=O)c(Cl)c1 [Example 38, 3-(2-Chloro-4,6-dimethyl-benzylamino)-4-(1,2,2-trimethyl-propylamino)-cyclobut-3-ene-1,2-dione] | percent contraction at 30 µM ([2]; Rattus norvegicus, 0.5 h): 200% |
| 11100 ± 400 nM | COc1cc(OC)c(CNc2c(NC(C)(C)C)c(=O)c2=O)c(OC)c1 [Example 15, 3-tert-Butylamino-4-(2,4,6-trimethoxy-benzylamino)-cyclobut-3-ene-1,2-dione] |  |
| 1110 ± 410 nM | CC(C)(C)Nc1c(NCc2c(Cl)cccc2Cl)c(=O)c1=O [Example 10, 3-tert-Butylamino-4-(2,6-dichloro-benzylamino)-cyclobut-3-ene-1,2-dione] |  |
| 1000 ± 600 nM | CCc1cc(Br)ccc1CNc1c(NC(C)(C)CC)c(=O)c1=O [Example 49, 3-(4-Bromo-2-ethyl-benzylamino)-4-(1,1-dimethyl-propylamino)-cyclobut-3-ene-1,2-dione] |  |
|  | CCC(CC)Nc1c(NCc2cc(C)cc(C#N)c2)c(=O)c1=O [Example 13, 3-{[2-(1-Ethyl-propylamino)-3,4-dioxo-cyclobut-1-enylamino]-methyl}-5-methyl-benzonitrile] | inhibition at 30 µM ([2]; Rattus norvegicus): 19.1 ± 1.7% |
| 310 ± 80 nM | CCC(C)(C)Nc1c(NCc2c(C)cc(C)cc2C)c(=O)c1=O [Example 81, 3-(1,1-Dimethyl-propylamino)-4-(2,4,6-trimethyl-benzylamino)-cyclobut-3-ene-1,2-dione] |  |
| 105 ± 5 nM | CCc1cc(C#N)ccc1CNc1c(NC(C)(C)CC)c(=O)c1=O [Example 50, 4-[(1,1-Dimethyl-propylamino-3,4-dioxo-cyclobut-1-enylamino)-methyl]-3-ethyl-benzonitrile] |  |

Source: patent publication US5780505A, “Substituted N-arylmethylamino derivatives of cyclobutene-3, 4-diones” (American Home Products Corporation, priority 1997, dated 1998)
